Laboratory results: PMC4493701, “Quantitative and qualitative analysis of the novel antitumor 1,3,4-oxadiazole derivative (GLB) and its metabolites using HPLC-UV and UPLC-QTOF-MS” (Scientific Reports, 2015)

How the values were obtained:
[1] = Identification of GLB metabolites in rat plasma by UPLC-ESI-QTOF-MS; type: in vivo; conditions: rat plasma after oral GLB 100 mg/kg; tentative, no metabolite standards
Excerpt: Because of two unknown chromatographic peaks were detected by HPLC after oral dose GLB in rat plasma, their structures were further identified and the metabolic pathways were investigated using UPLC-MS method. […] Based on the chromatographic retention times and mass spectral patterns (m/z and mass errors) between the parent drug and their product ions, the structures of metabolites of GLB could be estimated, in spite of lacking standards of metabolites. […] Metabolites M1 and M2 were detected at shorter retention times (2.56 and 2.86 min, respectively), and heavier molecular ions as m/z 529 (497 + 32 Da) and 513 (497 + 16 Da), respectively.
Furthermore, under the tandem mass spectrometry positive scan mode condition, the parent compound GLB was detected as protonated molecular ions at m/z 499 ([M+H]+) and sodium adduct (520, [M+Na]+), and fragment ion m/z 441, respectively (Fig. 3C). The metabolite M1 was detected as protonated molecular ions at m/z 529 ([M+H]+) and sodium adduct (m/z […], [M+Na]+), and fragment ions m/z 457, 449, 435 and 401, respectively. […]
The structure identifications of GLB and its metabolites were analyzed using a validated ultra-performance liquid chromatography- electrospray ionization-quadrupole-time-of-flight mass spectrometry (UPLC-ESI-QTOF-MS) method, as described in previous publications. […]

[2] = tested on: tumor angiogenesis, growth and metastasis; parameters: method as in PMID 15960897; conditions: in vivo; cited from earlier work
[3] = Stability of GLB in rat plasma QC samples under storage and processing conditions (HPLC-UV); type: in vitro ADME; conditions: for Measured concentration / Accuracy (RE, %): rat plasma
Description: The stability of GLB in rat plasma was determined by analyzing QC samples that was stored in different conditions, including: 1) room-temperature, 2) light irradiation for 24 hours, 3) post-preparation (the extracted samples stored at 4 °C for 48 hours and one week), 4) three cycles of freeze and thaw (freezing at −20 °C for 24 hours and thawing at room temperature), 5) long-term stored in −20 °C for up to 2 weeks, 1 month and 3 months, respectively. All the QC samples for stability assessment were analyzed in triplicate.
Under manifold storage and processing conditions, the stability of GLB in rat plasma was evaluated by analyzing three replicates for QC samples at 0.025, 0.5 and 4 μg/mL.
Calibration standard solutions were prepared by adding 25 μL of working standard solutions of GLB and IS into 375 μL blank rat plasma to achieve final concentrations of GLB of 0.01, 0.025, 0.05, 0.1, 0.5, 1, 4 and 8 μg/mL, and IS concentration of 1 μg/mL, respectively. QC samples were prepared in the same way using the low, medium and high concentrations of 0.025, 0.5 and 4 μg/mL, respectively.

thymidine phosphorylase = conditions: cited from earlier work
[4] = Freezing storage −20 °C for 1 month, actual concentration 0.025 μg/mL
[5] = Freezing storage −20 °C for 2 weeks, actual concentration 0.025 μg/mL
[6] = Freezing storage −20 °C for 2 weeks, actual concentration 0.5 μg/mL
[7] = Freezing storage −20 °C for 2 weeks, actual concentration 4 μg/mL
[8] = Light and room temperature for 24 hours, actual concentration 0.025 μg/mL
[9] = Light and room temperature for 24 hours, actual concentration 0.5 μg/mL
[10] = Light and room temperature for 24 hours, actual concentration 4 μg/mL
[11] = Post-preparative, 4 °C for 1 week, actual concentration 0.025 μg/mL
[12] = Post-preparative, 4 °C for 1 week, actual concentration 0.5 μg/mL
[13] = Post-preparative, 4 °C for 1 week, actual concentration 4 μg/mL
[14] = Post-preparative, 4 °C for 48 hours, actual concentration 0.025 μg/mL
[15] = Post-preparative, 4 °C for 48 hours, actual concentration 0.5 μg/mL
[16] = Post-preparative, 4 °C for 48 hours, actual concentration 4 μg/mL

In the case of `CC(=O)N1N=C(c2ccc(Br)cc2)OC1(C1OC(C)(C)OC1C(=O)O)C1(O)COC(C)(C)O1` (centres unmarked) [M1], the “Identification (metabolic modification of GLB)” value [1] is reported as “Di-hydroxylation”.
In the case of `CC(=O)N1N=C(c2ccc(Br)cc2)OC12C1OC(C)(C)OC1COC21COC(C)(C)O1` (centres unmarked) [GLB, Fructose-based 3-acetyl-2,3-dihydro-1,3,4-oxadiazole], the “Effect on tumor angiogenesis, growth and metastasis” value [2] is listed as “block the tumor angiogenesis, growth and metastasis in vivo”, the “Stability in rat plasma” value ([3]; 24 hours, 48 hours and 1 week at 4 °C, 2 weeks, 1 month and 3 months at −20 °C, three freeze-thaw cycles) is listed as “stable” and the Measured concentration ([3]; Freeze-thawing 3 cycles (−20 °C), actual concentration 0.025 μg/mL) is listed as 0.025 ± 0.001 µg/mL. The Measured concentration ([3]; Freeze-thawing 3 cycles (−20 °C), actual concentration 0.5 μg/mL) was 0.467 ± 0.036 µg/mL, the Measured concentration ([3]; Freeze-thawing 3 cycles (−20 °C), actual concentration 4 μg/mL) was 3.732 ± 0.227 µg/mL and the “Accuracy (RE, %)” value [3, 4] was 8.66%. The Measured concentration [3, 4] was 0.027 ± 0.002 µg/mL, the Measured concentration ([3]; Freezing storage −20 °C for 1 month, actual concentration 0.5 μg/mL) was 0.490 ± 0.015 µg/mL and the Measured concentration ([3]; Freezing storage −20 °C for 1 month, actual concentration 4 μg/mL) was 4.097 ± 0.213 µg/mL. The “Accuracy (RE, %)” value [3, 5] was 8.17%, the Measured concentration [3, 5] was 0.027 ± 0.001 µg/mL and the “Accuracy (RE, %)” value [3, 6] was 7.10%. For the same molecule, the Measured concentration [3, 6] was 0.535 ± 0.009 µg/mL, the “Accuracy (RE, %)” value [3, 7] was 9.84% and the Measured concentration [3, 7] was 4.393 ± 0.090 µg/mL. It also gave a Measured concentration ([3]; Freezing storage −20 °C for 3 months, actual concentration 0.025 μg/mL) of 0.023 ± 0.002 µg/mL, a Measured concentration ([3]; Freezing storage −20 °C for 3 months, actual concentration 0.5 μg/mL) of 0.487 ± 0.003 µg/mL and a Measured concentration ([3]; Freezing storage −20 °C for 3 months, actual concentration 4 μg/mL) of 3.918 ± 0.063 µg/mL. For the same molecule, the “Accuracy (RE, %)” value [3, 8] was 4.17%, the Measured concentration [3, 8] was 0.026 ± 0.002 µg/mL and the “Accuracy (RE, %)” value [3, 9] was −2.79%. The Measured concentration [3, 9] was 0.486 ± 0.027 µg/mL, the “Accuracy (RE, %)” value [3, 10] was −1.94% and the Measured concentration [3, 10] was 3.922 ± 0.055 µg/mL. The “Accuracy (RE, %)” value [3, 11] was 3.83%, the Measured concentration [3, 11] was 0.026 ± 0.001 µg/mL and the “Accuracy (RE, %)” value [3, 12] was −14.4%. For the same molecule, the Measured concentration [3, 12] was 0.428 ± 0.010 µg/mL, the “Accuracy (RE, %)” value [3, 13] was −8.30% and the Measured concentration [3, 13] was 3.668 ± 0.219 µg/mL. The “Accuracy (RE, %)” value [3, 14] was 5.31%, the Measured concentration [3, 14] was 0.026 ± 0.001 µg/mL and the “Accuracy (RE, %)” value [3, 15] was 5.62%. For the same molecule, the Measured concentration [3, 15] was 0.528 ± 0.007 µg/mL, the “Accuracy (RE, %)” value [3, 16] was 5.83% and the Measured concentration [3, 16] was 4.233 ± 0.196 µg/mL. For the same molecule, the Thymidine phosphorylase inhibition (thymidine phosphorylase) was “thymidine phosphorylase inhibitor”.
